# Reference: patent publication US8329675B2, “Inhibitors of fatty acid amide hydrolase” (Infinity Pharmaceuticals, Inc., priority 2006, dated 2012)
# Biological target: T1, rat FAAH (Rattus norvegicus, UniProt P97612)
# T1 construct: Five rat livers are homogenized in five fold volume with ice cold Tris; from tissue; host or cells: rat liver; 40,000 g membrane pellet solubilised in 1% Triton X-100
# T1 sequence (P97612 1-579): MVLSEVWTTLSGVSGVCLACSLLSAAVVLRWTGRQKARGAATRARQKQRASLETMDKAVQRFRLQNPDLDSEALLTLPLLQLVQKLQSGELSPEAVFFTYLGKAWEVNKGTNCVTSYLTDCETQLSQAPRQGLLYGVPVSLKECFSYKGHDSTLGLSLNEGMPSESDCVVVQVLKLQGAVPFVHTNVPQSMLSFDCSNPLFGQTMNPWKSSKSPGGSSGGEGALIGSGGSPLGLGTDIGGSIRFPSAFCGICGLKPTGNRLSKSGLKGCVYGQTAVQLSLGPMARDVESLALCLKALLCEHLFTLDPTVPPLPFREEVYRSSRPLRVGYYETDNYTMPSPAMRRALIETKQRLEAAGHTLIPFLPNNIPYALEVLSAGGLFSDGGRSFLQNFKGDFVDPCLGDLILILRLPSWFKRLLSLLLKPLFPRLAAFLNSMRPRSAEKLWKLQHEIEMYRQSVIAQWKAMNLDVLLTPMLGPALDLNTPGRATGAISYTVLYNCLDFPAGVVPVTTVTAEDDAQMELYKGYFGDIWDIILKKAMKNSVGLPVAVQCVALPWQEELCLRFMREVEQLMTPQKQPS
# Experiment: Rat FAAH biochemical inhibition assay (AMC arachidonoyl amide fluorescence)
# Description: The following assays may be used to determine the inhibition of FAAH by the compounds of the present invention: (1) a fluorescence-based assay for fatty acid amide hydrolase compatible with high-throughput screening as described in Manjunath et al., Analytical Biochemistry (2005) 343:143-151; and (2) a high-throughput screening for the discovery of inhibitors of fatty acid amide hydrolase using a microsome-based fluorescent assay. Wang et al., Biomolecular Screening (2006) 1-9.
# Rat FAAH Preparation: Five rat livers are homogenized in five fold volume with ice cold Tris (20 mM pH 8.0) and 0.32 M Sucrose solution via an Ultra Turrax T25 homogenizer. All subsequent preparation steps are carried out at 4° C. The homogenate is centrifuged at 6000 g, for 20 minutes and the pellet, containing nuclear debris and mitochondria is discarded. The supernatant is centrifuged at 40,000 g for 30 minutes. […]
# Rat FAAH Biochemical Inhibition Assay; Materials and methods: Rat FAAH biochemical assays are carried out in a 96 well flat bottom black non-treated polystyrene plates (Corning Costar Catalogue #3915). […] FAAH substrate—AMC Arachidonoyl Amide (Cayman Chemicals Company, Catalogue #10005098) The reaction is read in an Envision microtiter plate reader [Excitation filter 355 nm (40 nm bandpass); Emmision filter 460 nm (25 nm bandpass)]. The raw fluorescence is plotted on the y axis and the inhibitor concentration on the x axis to give a dose response inhibition curve. […]
# Rat FAAH Biochemical Inhibition Assay; Experimental Protocol: The principle of this assay is the hydrolysis of AMC-Arichodonoyl, a fluorescent analogue of Anandamide, which results in the formation of Arachidonic acid and AMC. The formation of AMC results in an increase in fluorescence (see, for example, Manjunath et al., Analytical Biochemistry (2005) 343:143-151; and Wang et al., Bimolecular Screening (2006) 1-9).
# A 0.49 mg/ml Rat liver FAAH solution is made up in FAAH reaction buffer, and 78 ul pipetted into a 96 well plate. […] The microtiter plate is read in the envision plate reader. […]
"Ki (Table 1, rat FAAH (asterisk))","Ki (Table 2, rat FAAH (asterisk))",Structure (SMILES)
10 to 1000 nM,,OB(O)c1cc2ccccc2s1 [Compound I-127]
10 to 1000 nM,,CCCCCCOc1ccc(B(O)O)cc1 [Compound I-130]
,10 to 1000 nM,CCCCOc1cccc(B(O)O)c1 [II-315]
